Measured values published in PubChem BioAssay (NCI).
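Five concentrations, 48 hours, 96-well plates. GI50 = concentration required for 50% inhibition of growth. TGI: concentration producing complete growth inhibition.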

How the values were obtained:
Assay in all cases: NCI tumour cell line growth inhibition, 48 h
NCI-H522 lung = tested on: NCI-H522 lung
COLO 205 colon = tested on: COLO 205 colon
MOLT-4 leukemia = tested on: MOLT-4 leukemia
SR leukemia = tested on: SR leukemia
HL-60(TB) leukemia = tested on: HL-60(TB) leukemia
MCF7 breast = tested on: MCF7 breast
HT29 colon = tested on: HT29 colon
HOP-62 NSCLC = tested on: HOP-62 NSCLC
HOP-92 NSCLC = tested on: HOP-92 NSCLC
OVCAR-3 ovarian = tested on: OVCAR-3 ovarian
TK-10 renal = tested on: TK-10 renal
M14 melanoma = tested on: M14 melanoma
HCT-116 colon = tested on: HCT-116 colon
CCRF-CEM leukemia = tested on: CCRF-CEM leukemia
CAKI-1 renal = tested on: CAKI-1 renal
SNB-19 CNS = tested on: SNB-19 CNS
MDA-MB-435 = tested on: MDA-MB-435
NCI-H23 lung = tested on: NCI-H23 lung
RPMI-8226 leukemia = tested on: RPMI-8226 leukemia
SNB-75 CNS = tested on: SNB-75 CNS
SF-539 CNS = tested on: SF-539 CNS
DU-145 prostate = tested on: DU-145 prostate
HCT-15 colon = tested on: HCT-15 colon
A549 NSCLC = tested on: A549 NSCLC
LOX IMVI melanoma = tested on: LOX IMVI melanoma
SF-268 CNS = tested on: SF-268 CNS
NCI/ADR-RES ovarian = tested on: NCI/ADR-RES ovarian
SK-MEL-5 melanoma = tested on: SK-MEL-5 melanoma
SK-MEL-2 melanoma = tested on: SK-MEL-2 melanoma
OVCAR-4 ovarian = tested on: OVCAR-4 ovarian
KM12 colon = tested on: KM12 colon
A498 renal = tested on: A498 renal
MDA-MB-231 breast = tested on: MDA-MB-231 breast
UO-31 renal = tested on: UO-31 renal
UACC-257 melanoma = tested on: UACC-257 melanoma
NCI-H226 lung = tested on: NCI-H226 lung
OVCAR-5 ovarian = tested on: OVCAR-5 ovarian
IGROV1 ovarian = tested on: IGROV1 ovarian
U251 CNS = tested on: U251 CNS
786-0 renal = tested on: 786-0 renal
NCI-H460 lung = tested on: NCI-H460 lung
HS 578T breast = tested on: HS 578T breast
T-47D breast = tested on: T-47D breast
HCC-2998 colon = tested on: HCC-2998 colon
K-562 leukemia = tested on: K-562 leukemia
BT-549 breast = tested on: BT-549 breast
ACHN renal = tested on: ACHN renal
SW-620 colon = tested on: SW-620 colon
SF-295 CNS = tested on: SF-295 CNS
SK-OV-3 ovarian = tested on: SK-OV-3 ovarian
EKVX NSCLC = tested on: EKVX NSCLC
MALME-3M melanoma = tested on: MALME-3M melanoma
SN12C renal = tested on: SN12C renal
OVCAR-8 ovarian = tested on: OVCAR-8 ovarian
SK-MEL-28 melanoma = tested on: SK-MEL-28 melanoma
UACC-62 melanoma = tested on: UACC-62 melanoma
PC-3 prostate = tested on: PC-3 prostate
RXF 393 renal = tested on: RXF 393 renal

CC(C)[C@@H](C(=O)O[C@@H]1/C=C/C(=O)O[C@@H](C)CCC/C=C/[C@@H]2C[C@H](O)C[C@H]21)N(C)C
GI50 (NCI-H522 lung): 26.6 µM
TGI (NCI-H522 lung): > 75 µM
GI50 (COLO 205 colon): 8.95 µM
TGI (COLO 205 colon): 25.5 µM
GI50 (MOLT-4 leukemia): 15.9 µM
TGI (MOLT-4 leukemia): 42.8 µM
GI50 (SR leukemia): 14.9 µM
TGI (SR leukemia): 38.1 µM
GI50 (HL-60(TB) leukemia): 13.8 µM
TGI (HL-60(TB) leukemia): 36 µM
GI50 (MCF7 breast): 11.9 µM
TGI (MCF7 breast): 43.1 µM
GI50 (HT29 colon): 5.16 µM
TGI (HT29 colon): 27.3 µM
GI50 (HOP-62 NSCLC): 22.3 µM
TGI (HOP-62 NSCLC): > 100 µM
GI50 (HOP-92 NSCLC): 0.0403 µM
TGI (HOP-92 NSCLC): 0.0954 µM
GI50 (OVCAR-3 ovarian): 6.34 µM
TGI (OVCAR-3 ovarian): 26.7 µM
GI50 (TK-10 renal): 12.4 µM
TGI (TK-10 renal): 51.4 µM
GI50 (M14 melanoma): 15.2 µM
TGI (M14 melanoma): 63.2 µM
GI50 (HCT-116 colon): 22.3 µM
TGI (HCT-116 colon): 64.4 µM
GI50 (CCRF-CEM leukemia): 7.84 µM
TGI (CCRF-CEM leukemia): 35.1 µM
GI50 (CAKI-1 renal): 11.9 µM
TGI (CAKI-1 renal): 42.8 µM
GI50 (SNB-19 CNS): 37 µM
TGI (SNB-19 CNS): > 100 µM
GI50 (MDA-MB-435): 7.43 µM
TGI (MDA-MB-435): 41.4 µM
GI50 (NCI-H23 lung): 23.3 µM
TGI (NCI-H23 lung): 91.8 µM
GI50 (RPMI-8226 leukemia): 3.93 µM
TGI (RPMI-8226 leukemia): 27.1 µM
GI50 (SNB-75 CNS): 2.89 µM
TGI (SNB-75 CNS): 27.7 µM
GI50 (SF-539 CNS): 22.5 µM
TGI (SF-539 CNS): 67.4 µM
GI50 (DU-145 prostate): 29.4 µM
TGI (DU-145 prostate): > 100 µM
GI50 (HCT-15 colon): 16 µM
TGI (HCT-15 colon): 32.3 µM
GI50 (A549 NSCLC): 24 µM
TGI (A549 NSCLC): > 100 µM
GI50 (LOX IMVI melanoma): 17 µM
TGI (LOX IMVI melanoma): 39.9 µM
GI50 (SF-268 CNS): 7.33 µM
TGI (SF-268 CNS): > 45 µM
GI50 (NCI/ADR-RES ovarian): 24.6 µM
TGI (NCI/ADR-RES ovarian): > 93.6 µM
GI50 (SK-MEL-5 melanoma): 2.25 µM
TGI (SK-MEL-5 melanoma): 5.37 µM
GI50 (SK-MEL-2 melanoma): 23.1 µM
TGI (SK-MEL-2 melanoma): > 68.3 µM
GI50 (OVCAR-4 ovarian): 9.09 µM
TGI (OVCAR-4 ovarian): > 61.9 µM
GI50 (KM12 colon): 2.91 µM
TGI (KM12 colon): 10.2 µM
GI50 (A498 renal): 2.54 µM
TGI (A498 renal): 7.97 µM
GI50 (MDA-MB-231 breast): 20.2 µM
TGI (MDA-MB-231 breast): 63.2 µM
GI50 (UO-31 renal): 23.1 µM
TGI (UO-31 renal): > 100 µM
GI50 (UACC-257 melanoma): 20.8 µM
TGI (UACC-257 melanoma): > 81.9 µM
GI50 (NCI-H226 lung): 9.21 µM
TGI (NCI-H226 lung): 36.4 µM
GI50 (OVCAR-5 ovarian): 35.9 µM
TGI (OVCAR-5 ovarian): > 100 µM
GI50 (IGROV1 ovarian): 30.3 µM
TGI (IGROV1 ovarian): > 89 µM
GI50 (U251 CNS): 30.2 µM
TGI (U251 CNS): > 100 µM
GI50 (786-0 renal): 9.9 µM
TGI (786-0 renal): 52.3 µM
GI50 (NCI-H460 lung): 24.7 µM
TGI (NCI-H460 lung): > 76.3 µM
GI50 (HS 578T breast): 6.4 µM
TGI (HS 578T breast): 50.5 µM
GI50 (T-47D breast): 30 µM
TGI (T-47D breast): > 100 µM
GI50 (HCC-2998 colon): 20 µM
TGI (HCC-2998 colon): 55.1 µM
GI50 (K-562 leukemia): 20.3 µM
TGI (K-562 leukemia): 50.7 µM
GI50 (BT-549 breast): 9.41 µM
TGI (BT-549 breast): 32 µM
GI50 (ACHN renal): 38.4 µM
TGI (ACHN renal): > 100 µM
GI50 (SW-620 colon): 7.03 µM
TGI (SW-620 colon): 20.7 µM
GI50 (SF-295 CNS): 6 µM
TGI (SF-295 CNS): 24.9 µM
GI50 (SK-OV-3 ovarian): 23.8 µM
TGI (SK-OV-3 ovarian): > 96 µM
GI50 (EKVX NSCLC): 12.5 µM
TGI (EKVX NSCLC): 64.9 µM
GI50 (MALME-3M melanoma): 3.89 µM
TGI (MALME-3M melanoma): 22 µM
GI50 (SN12C renal): 28.4 µM
TGI (SN12C renal): > 62.1 µM
GI50 (OVCAR-8 ovarian): 18.1 µM
TGI (OVCAR-8 ovarian): > 83.2 µM
GI50 (SK-MEL-28 melanoma): 6.03 µM
TGI (SK-MEL-28 melanoma): 23.5 µM
GI50 (UACC-62 melanoma): 21.7 µM
TGI (UACC-62 melanoma): > 72.1 µM
GI50 (PC-3 prostate): 6.77 µM
TGI (PC-3 prostate): 61.6 µM
GI50 (RXF 393 renal): 7.33 µM
TGI (RXF 393 renal): 44.1 µM
